# Results published in patent US20070066801A1 (priority 2003, published 2007).
# Test system: mutant F. novicida knock-outs
# Type: binding, Francisella novicida
sequence,measurement,value
TSITPWFFLSRP [phage 4-4-2],expected binding of phage to knock-out mutants inactivated for the cell surface marker,absence of specific binding
